Experimental data taken from PubChem BioAssay AID1963833 (Molecular Pharmacology Branch, DTP, NCI, 2024).

System: 883617-216-R-J1-PDC complex spheroid viability
Test: Anticancer human tumor 883617-216-R-J1-PDC patient-derived bladder carcinoma cell line growth inhibition [POLQ]
Conditions: for IC50: curve of first compound; for viability, T/C: stronger effect = lower value; active = viability on the fitted dose curve at most 10% of control; inactive = the rest
Outline: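 Growth inhibition in 3D: complex spheroids (tumor PDC, HUVEC, MSC) treated with POLQ inhibitor combinations; where Cmax unknown, highest tested concentration 10 microM, except SN-38 at 1 microM.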

[1] = second compound 0.0316 µM, first compound 0.00316 µM
[2] = second compound 0.0316 µM, first compound 0.01 µM
[3] = second compound 0.0316 µM, first compound 0.0316 µM
[4] = second compound 0.0316 µM, first compound 0.1 µM
[5] = second compound 0.0316 µM, first compound 0.316 µM
[6] = second compound 0.0316 µM, first compound 1 µM
[7] = second compound 0.1 µM, first compound 0.00316 µM
[8] = second compound 0.1 µM, first compound 0.01 µM
[9] = second compound 0.1 µM, first compound 0.0316 µM
[10] = second compound 0.1 µM, first compound 0.1 µM
[11] = second compound 0.1 µM, first compound 0.316 µM
[12] = second compound 0.1 µM, first compound 1 µM
[13] = second compound 0.316 µM, first compound 0.00316 µM
[14] = second compound 0.316 µM, first compound 0.01 µM
[15] = second compound 0.316 µM, first compound 0.0316 µM
[16] = second compound 0.316 µM, first compound 0.1 µM
[17] = second compound 0.316 µM, first compound 0.316 µM
[18] = second compound 0.316 µM, first compound 1 µM
[19] = second compound 1 µM, first compound 0.00316 µM
[20] = second compound 1 µM, first compound 0.01 µM
[21] = second compound 1 µM, first compound 0.0316 µM
[22] = second compound 1 µM, first compound 0.1 µM
[23] = second compound 1 µM, first compound 0.316 µM
[24] = second compound 1 µM, first compound 1 µM
[25] = second compound 3.16 µM, first compound 0.00316 µM
[26] = second compound 3.16 µM, first compound 0.01 µM
[27] = second compound 3.16 µM, first compound 0.0316 µM
[28] = second compound 3.16 µM, first compound 0.1 µM
[29] = second compound 3.16 µM, first compound 0.316 µM
[30] = second compound 3.16 µM, first compound 1 µM
[31] = second compound 10 µM, first compound 0.00316 µM
[32] = second compound 10 µM, first compound 0.01 µM
[33] = second compound 10 µM, first compound 0.0316 µM
[34] = second compound 10 µM, first compound 0.1 µM
[35] = second compound 10 µM, first compound 0.316 µM
[36] = second compound 10 µM, first compound 1 µM
[37] = second compound 0.0316 µM, first compound 3.16 µM
[38] = second compound 0.0316 µM, first compound 10 µM
[39] = second compound 0.1 µM, first compound 3.16 µM
[40] = second compound 0.1 µM, first compound 10 µM
[41] = second compound 0.316 µM, first compound 3.16 µM
[42] = second compound 0.316 µM, first compound 10 µM
[43] = second compound 1 µM, first compound 3.16 µM
[44] = second compound 1 µM, first compound 10 µM
[45] = second compound 3.16 µM, first compound 3.16 µM
[46] = second compound 3.16 µM, first compound 10 µM
[47] = second compound 10 µM, first compound 3.16 µM
[48] = second compound 10 µM, first compound 10 µM
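Note: spheroids exposed to compounds for seven days before readout.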
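Throughout, for viability, T/C: 100% = DMSO vehicle control viability.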

COc1cccc(OCCCN)c1-c1cc(Nc2cnc(C#N)cn2)n[nH]1 + COC1C(OC(N)=O)C(O)C(Oc2ccc3c(O)c(NC(=O)c4ccc(O)c(CC=C(C)C)c4)c(=O)oc3c2C)OC1(C)C
21.5 nM: IC50 (second compound 3.16 µM)
24.4 nM: IC50 (second compound 1 µM)
33.2 nM: IC50 (second compound 0.1 µM)
58.9 nM: IC50 (second compound 0.316 µM)
inactive: viability, T/C [1] 83.3% | viability, T/C [2] 73.8% | viability, T/C [3] 46.9% | viability, T/C [4] 42.4% | viability, T/C [5] 28.1% | viability, T/C [6] 23.4% | viability, T/C [7] 91% | viability, T/C [8] 76.8% | viability, T/C [9] 46.5% | viability, T/C [10] 40.4% | viability, T/C [11] 27.6% | viability, T/C [12] 27.1% | viability, T/C [13] 85.6% | viability, T/C [14] 67.3% | viability, T/C [15] 66.3% | viability, T/C [16] 37.6% | viability, T/C [17] 32.5% | viability, T/C [18] 30% | viability, T/C [19] 90.8% | viability, T/C [20] 69.9% | viability, T/C [21] 42.6% | viability, T/C [22] 35.4% | viability, T/C [23] 27.7% | viability, T/C [24] 27.2% | viability, T/C [25] 88.2% | viability, T/C [26] 62.2% | viability, T/C [27] 41.4% | viability, T/C [28] 37.5% | viability, T/C [29] 39.6% | viability, T/C [30] 27.4% | viability, T/C [31] 92.2% | viability, T/C [32] 75.2% | viability, T/C [33] 50.9% | viability, T/C [34] 36.2% | viability, T/C [35] 35% | viability, T/C [36] 25.7%
38.9 nM: IC50 (second compound 0.0316 µM)
36.5 nM: IC50 (second compound 10 µM)

Nc1ccn(C2OC(CO)C(O)C2(F)F)c(=O)n1 (stereo not drawn) + COC1C(OC(N)=O)C(O)C(Oc2ccc3c(O)c(NC(=O)c4ccc(O)c(CC=C(C)C)c4)c(=O)oc3c2C)OC1(C)C
< 31.6 nM: IC50 (second compound 0.0316 µM) | IC50 (second compound 0.1 µM) | IC50 (second compound 0.316 µM) | IC50 (second compound 1 µM) | IC50 (second compound 3.16 µM) | IC50 (second compound 10 µM)
inactive: viability, T/C [3] 25.9% | viability, T/C [4] 30% | viability, T/C [5] 35.5% | viability, T/C [6] 36.7% | viability, T/C [37] 28.9% | viability, T/C [38] 36.5% | viability, T/C [9] 31% | viability, T/C [10] 34.8% | viability, T/C [11] 47% | viability, T/C [12] 39% | viability, T/C [39] 38.2% | viability, T/C [40] 31.2% | viability, T/C [15] 25.5% | viability, T/C [16] 35.1% | viability, T/C [17] 36.9% | viability, T/C [18] 34.3% | viability, T/C [41] 40.6% | viability, T/C [42] 32.1% | viability, T/C [21] 28.8% | viability, T/C [22] 37.7% | viability, T/C [23] 42.1% | viability, T/C [24] 41.7% | viability, T/C [43] 31.1% | viability, T/C [44] 26.9% | viability, T/C [27] 30.6% | viability, T/C [28] 32.6% | viability, T/C [29] 39.9% | viability, T/C [30] 33.5% | viability, T/C [45] 35.2% | viability, T/C [46] 28% | viability, T/C [33] 29.3% | viability, T/C [34] 31.3% | viability, T/C [35] 34.9% | viability, T/C [36] 35% | viability, T/C [47] 32.3% | viability, T/C [48] 32.1%

Cn1ncnc1[C@H]1c2n[nH]c(=O)c3cc(F)cc(c23)N[C@@H]1c1ccc(F)cc1 + Cc1cccc(N(C)C(=O)C2C(O)CCN2c2nc(C)cc(C(F)(F)F)c2C#N)c1
> 100 nM: IC50 (second compound 0.0316 µM) | IC50 (second compound 0.1 µM) | IC50 (second compound 0.316 µM) | IC50 (second compound 1 µM) | IC50 (second compound 3.16 µM) | IC50 (second compound 10 µM)
inactive: viability, T/C (second compound 0.0316 µM, first compound 0.000316 µM) 99.2% | viability, T/C (second compound 0.0316 µM, first compound 0.001 µM) 101% | viability, T/C [1] 93.4% | viability, T/C [2] 78% | viability, T/C [3] 74.4% | viability, T/C [4] 73.7% | viability, T/C (second compound 0.1 µM, first compound 0.000316 µM) 96.3% | viability, T/C (second compound 0.1 µM, first compound 0.001 µM) 96.3% | viability, T/C [7] 96.9% | viability, T/C [8] 86.6% | viability, T/C [9] 82.9% | viability, T/C [10] 76.7% | viability, T/C (second compound 0.316 µM, first compound 0.000316 µM) 95.7% | viability, T/C (second compound 0.316 µM, first compound 0.001 µM) 98.3% | viability, T/C [13] 94.2% | viability, T/C [14] 81.1% | viability, T/C [15] 72.8% | viability, T/C [16] 64.2% | viability, T/C (second compound 1 µM, first compound 0.000316 µM) 98.1% | viability, T/C (second compound 1 µM, first compound 0.001 µM) 98.6% | viability, T/C [19] 88.6% | viability, T/C [20] 84.8% | viability, T/C [21] 83% | viability, T/C [22] 74% | viability, T/C (second compound 3.16 µM, first compound 0.000316 µM) 109% | viability, T/C (second compound 3.16 µM, first compound 0.001 µM) 96.8% | viability, T/C [25] 94.8% | viability, T/C [26] 84.5% | viability, T/C [27] 81.8% | viability, T/C [28] 69.2% | viability, T/C (second compound 10 µM, first compound 0.000316 µM) 103% | viability, T/C (second compound 10 µM, first compound 0.001 µM) 100% | viability, T/C [31] 98.4% | viability, T/C [32] 90.8% | viability, T/C [33] 91.3% | viability, T/C [34] 80.6%

COc1cc2cc(C(=O)CCC(=O)O)sc2cc1OC + COC1C(OC(N)=O)C(O)C(Oc2ccc3c(O)c(NC(=O)c4ccc(O)c(CC=C(C)C)c4)c(=O)oc3c2C)OC1(C)C
inactive: viability, T/C [3] 91.3% | viability, T/C [4] 89.1% | viability, T/C [5] 105% | viability, T/C [6] 83.3% | viability, T/C [37] 101% | viability, T/C [38] 90.9% | viability, T/C [9] 113% | viability, T/C [10] 102% | viability, T/C [11] 88.7% | viability, T/C [12] 93.8% | viability, T/C [39] 99.6% | viability, T/C [40] 102% | viability, T/C [15] 89.4% | viability, T/C [16] 83.6% | viability, T/C [17] 92.5% | viability, T/C [18] 93% | viability, T/C [41] 101% | viability, T/C [42] 89.2% | viability, T/C [21] 98.9% | viability, T/C [22] 96.6% | viability, T/C [23] 86.4% | viability, T/C [24] 100% | viability, T/C [43] 90.4% | viability, T/C [44] 98.2% | viability, T/C [27] 94% | viability, T/C [28] 94.1% | viability, T/C [29] 90.7% | viability, T/C [30] 101% | viability, T/C [45] 98.6% | viability, T/C [46] 92.4% | viability, T/C [33] 101% | viability, T/C [34] 98.5% | viability, T/C [35] 88.5% | viability, T/C [36] 93.9% | viability, T/C [47] 84.6% | viability, T/C [48] 101%
> 10000 nM: IC50 (second compound 0.0316 µM) | IC50 (second compound 0.1 µM) | IC50 (second compound 0.316 µM) | IC50 (second compound 1 µM) | IC50 (second compound 3.16 µM) | IC50 (second compound 10 µM)
